Measurements as given in US20090270496A1, “ANTIFUNGAL COMPOUNDS” (priority 2007, published 2009).

Key:
[1] = test system: cytoplasmic Ca2+ in S. cerevisiae cells (FY70 [pEVP11/AEQ]); test: Aequorin luminescence, yeast cytoplasmic Ca2+; assay type: cell-based, Saccharomyces cerevisiae; conditions: 50 μM added at t=30 sec, monitored […]; also: monitored 3.5 min
Description: Cells were transformed with pEVP11/AEQ, which constitutively expresses apoaequorin directed to the cytoplasm (Batiza et al., 1996) Transformed cells were grown to mid-exponential phase in SD-leu to maintain the plasmid. 1.5×10^7 cells were pelleted and resuspended in fresh SD-leu medium containing 5.9 μM coelenterazine for 1 hour to allow the cofactor to diffuse into cells and bind the apoaequorin. Cells were pelleted again and resuspended in fresh SD-leu (“SD” buffer) and 2.5×10^6 cells per well aliquoted to a microtiter plate for luminescence measurement. Luminescence was measured in an EG&G Berthold luminometer using Winglow monitoring and analysis software.
S. cerevisiae cells were prepared for aequorin assays as just described.

Gi2 = Gi2 (Homo sapiens, UniProt P04899); conditions: reconstituted Gi2, in vitro; read-out: EC50, activation of GTPase; cited from earlier work
HL-60 cells = conditions: in the presence but not in the absence of extracellular Ca2+; cited from earlier work
[2] = cited from earlier work
[3] = during chronic treatment; cited from earlier work

Chain of Gi2 (P04899 2-355 limits assumed): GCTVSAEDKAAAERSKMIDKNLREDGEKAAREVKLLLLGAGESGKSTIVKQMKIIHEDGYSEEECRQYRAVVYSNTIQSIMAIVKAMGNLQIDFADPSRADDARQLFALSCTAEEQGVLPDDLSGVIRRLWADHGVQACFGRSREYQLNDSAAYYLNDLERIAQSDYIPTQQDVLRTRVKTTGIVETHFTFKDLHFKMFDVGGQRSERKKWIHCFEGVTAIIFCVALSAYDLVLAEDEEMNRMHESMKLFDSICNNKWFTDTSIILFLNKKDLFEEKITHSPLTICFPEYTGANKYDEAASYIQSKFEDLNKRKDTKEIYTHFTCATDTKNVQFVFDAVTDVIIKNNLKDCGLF

Row | Compound | increase in RLUs (cytoplasmic Ca2+) [1] | increase in RLUs (cytoplasmic Ca2+) ([1]; listed as amiodarone) | EC50 (Gi2) | cytosolic Ca2+ concentration (HL-60 cells) | ataxia, patients affected ([2]; especially during loading doses) | pulmonary fibrosis or pneumonitis fatal, cases ([2]; human, in vivo) | plasma ratio of metabolite to parent compound [3]
1 | CCCCc1oc2ccccc2c1C(=O)c1cc(I)c(OCCN(CC)CC)c(I)c1 [Amiodarone, amiodarone] | immediate and very large increase | immediate and huge increase | 50 µM | increased | 20-40% | about 10% | –
2 | CCCCc1oc2ccccc2c1C(=O)c1cc(I)c(OCCNCC)c(I)c1 [desethylamiodarone] | – | – | – | – | – | – | approximately one
